# Data taken from patent US12350259B2, “Methods of treating migraine” (Allergan Pharmaceuticals International Limited, priority 2021, dated 2025).
# Read-outs that look alike come from different tables or passages of the source.
# What was measured:
# [1] = Hepatic impairment study: safety and tolerability; type: in vivo, human; settings: single 60 mg dose, all hepatic function groups
# Protocol: A multicenter, non-randomized, open-label, parallel-group, single-dose study was carried out to evaluate the PK, safety, and tolerability profiles of atogepant in participants with impaired hepatic function and matched healthy participants with normal hepatic function after a single 60-mg oral dose of atogepant. The primary outcome measures were PK parameters of atogepant derived from plasma concentrations. Safety measures were AEs, clinical laboratory determinations, vital sign parameters, electrocardiographic results, and physical examination findings.
# [2] = target: BCRP (Homo sapiens, UniProt Q9UNQ0); experiment: Transporter substrate; type: in vitro ADME
# Sequence of BCRP (Q9UNQ0 whole entry): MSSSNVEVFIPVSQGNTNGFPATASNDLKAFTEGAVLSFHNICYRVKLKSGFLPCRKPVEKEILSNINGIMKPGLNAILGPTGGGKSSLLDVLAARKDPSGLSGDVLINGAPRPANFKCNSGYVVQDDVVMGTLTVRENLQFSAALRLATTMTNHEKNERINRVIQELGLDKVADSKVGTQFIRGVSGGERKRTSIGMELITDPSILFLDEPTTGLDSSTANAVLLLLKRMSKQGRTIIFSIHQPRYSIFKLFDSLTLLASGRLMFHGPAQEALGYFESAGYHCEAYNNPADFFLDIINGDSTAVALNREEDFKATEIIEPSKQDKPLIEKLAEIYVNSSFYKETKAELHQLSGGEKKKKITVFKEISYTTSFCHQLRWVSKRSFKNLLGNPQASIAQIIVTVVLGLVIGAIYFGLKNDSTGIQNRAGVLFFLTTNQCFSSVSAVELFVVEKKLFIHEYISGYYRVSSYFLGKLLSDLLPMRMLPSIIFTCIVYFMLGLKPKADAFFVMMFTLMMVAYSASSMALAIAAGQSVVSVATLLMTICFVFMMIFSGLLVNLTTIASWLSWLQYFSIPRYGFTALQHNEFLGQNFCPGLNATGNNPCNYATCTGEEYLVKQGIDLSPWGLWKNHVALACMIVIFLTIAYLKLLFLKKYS
# [3] = target: CYP2C9 (Homo sapiens, UniProt P11712); experiment: In vitro CYP inhibition; type: in vitro ADME; settings: clinically relevant concentrations
# Sequence of CYP2C9 (P11712 whole entry): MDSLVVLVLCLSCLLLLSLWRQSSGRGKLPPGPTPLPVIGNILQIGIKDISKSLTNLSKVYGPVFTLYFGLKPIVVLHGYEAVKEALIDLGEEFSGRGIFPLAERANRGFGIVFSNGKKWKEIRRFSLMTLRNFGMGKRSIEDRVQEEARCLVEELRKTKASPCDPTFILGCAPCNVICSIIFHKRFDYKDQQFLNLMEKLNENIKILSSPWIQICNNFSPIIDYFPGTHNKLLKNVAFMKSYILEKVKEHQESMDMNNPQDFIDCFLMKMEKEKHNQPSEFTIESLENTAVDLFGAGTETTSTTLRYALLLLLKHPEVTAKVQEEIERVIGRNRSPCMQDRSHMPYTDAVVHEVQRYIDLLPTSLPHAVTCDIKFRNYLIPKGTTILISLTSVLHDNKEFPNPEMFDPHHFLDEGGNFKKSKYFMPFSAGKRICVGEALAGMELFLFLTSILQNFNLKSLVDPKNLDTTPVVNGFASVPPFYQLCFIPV
# [4] = target: CYP2C19 (Homo sapiens, UniProt P33261); experiment: In vitro CYP inhibition; type: in vitro ADME; settings: clinically relevant concentrations
# Sequence of CYP2C19 (P33261 whole entry): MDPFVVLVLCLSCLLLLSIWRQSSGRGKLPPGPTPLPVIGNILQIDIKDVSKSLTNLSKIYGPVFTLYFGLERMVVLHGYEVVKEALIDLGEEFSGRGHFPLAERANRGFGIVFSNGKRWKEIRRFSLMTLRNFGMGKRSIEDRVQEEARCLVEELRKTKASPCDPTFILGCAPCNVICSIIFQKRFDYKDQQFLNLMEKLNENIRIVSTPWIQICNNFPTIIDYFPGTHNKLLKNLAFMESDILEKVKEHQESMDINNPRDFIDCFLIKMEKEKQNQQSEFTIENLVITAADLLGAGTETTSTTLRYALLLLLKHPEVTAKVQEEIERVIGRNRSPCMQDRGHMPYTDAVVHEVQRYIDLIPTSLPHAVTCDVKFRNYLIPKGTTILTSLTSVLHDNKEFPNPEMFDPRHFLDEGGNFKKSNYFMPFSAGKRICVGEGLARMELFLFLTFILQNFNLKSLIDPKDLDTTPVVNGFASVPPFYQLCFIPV
# [5] = target: OAT1 (Homo sapiens, UniProt Q4U2R8); experiment: Transporter substrate; type: in vitro ADME
# Sequence of OAT1 (Q4U2R8 whole entry): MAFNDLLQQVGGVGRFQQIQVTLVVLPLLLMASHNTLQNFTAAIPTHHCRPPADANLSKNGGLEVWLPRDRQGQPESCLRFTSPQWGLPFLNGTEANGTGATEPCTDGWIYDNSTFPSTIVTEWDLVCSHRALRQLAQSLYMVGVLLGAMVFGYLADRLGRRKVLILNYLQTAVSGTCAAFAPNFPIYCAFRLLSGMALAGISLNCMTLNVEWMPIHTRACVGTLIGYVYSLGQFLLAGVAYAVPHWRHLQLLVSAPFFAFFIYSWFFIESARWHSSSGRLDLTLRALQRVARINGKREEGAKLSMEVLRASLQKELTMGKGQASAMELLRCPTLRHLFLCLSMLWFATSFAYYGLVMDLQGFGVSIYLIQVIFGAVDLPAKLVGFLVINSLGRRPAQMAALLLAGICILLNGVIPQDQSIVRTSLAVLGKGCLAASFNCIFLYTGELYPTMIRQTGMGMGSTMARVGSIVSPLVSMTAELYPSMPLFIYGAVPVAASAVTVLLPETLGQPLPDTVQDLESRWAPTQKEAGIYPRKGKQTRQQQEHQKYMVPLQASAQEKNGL
# [6] = Atogepant-quinidine gluconate interaction study: safety; type: in vivo, human; settings: atogepant 60 mg alone or with quinidine gluconate
# Description: Atogepant PK parameters calculated were peak plasma concentration (Cmax); time to Cmax (tmax); and area under plasma concentration—time curve from time 0 to time t (AUC0-t) and infinity (AUC0-∞). […] Safety assessments included clinical laboratory values, vital signs, electrocardiograms, and […] adverse events (TEAEs).
# [7] = target: OATP1B3 (Homo sapiens, UniProt Q9NPD5); experiment: Transporter inhibition; type: in vitro ADME
# Sequence of OATP1B3 (Q9NPD5 whole entry): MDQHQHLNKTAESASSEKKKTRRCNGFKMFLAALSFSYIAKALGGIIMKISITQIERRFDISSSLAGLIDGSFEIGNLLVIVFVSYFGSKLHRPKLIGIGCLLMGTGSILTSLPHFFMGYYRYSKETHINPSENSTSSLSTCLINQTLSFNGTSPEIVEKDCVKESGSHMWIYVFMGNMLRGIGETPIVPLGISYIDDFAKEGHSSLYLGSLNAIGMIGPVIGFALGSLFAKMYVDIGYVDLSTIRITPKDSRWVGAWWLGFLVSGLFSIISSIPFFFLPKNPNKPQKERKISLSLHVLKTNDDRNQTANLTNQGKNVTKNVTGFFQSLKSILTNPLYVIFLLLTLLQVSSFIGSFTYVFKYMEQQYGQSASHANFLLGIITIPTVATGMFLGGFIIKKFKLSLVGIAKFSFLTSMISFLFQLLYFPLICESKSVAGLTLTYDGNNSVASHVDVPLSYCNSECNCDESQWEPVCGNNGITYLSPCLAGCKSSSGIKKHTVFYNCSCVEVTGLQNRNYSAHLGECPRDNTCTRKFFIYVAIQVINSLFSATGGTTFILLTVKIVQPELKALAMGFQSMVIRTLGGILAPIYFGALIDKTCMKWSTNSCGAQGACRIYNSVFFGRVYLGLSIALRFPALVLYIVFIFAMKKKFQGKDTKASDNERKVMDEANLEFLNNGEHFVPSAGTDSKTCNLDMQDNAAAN
# [8] = system: plasma protein; experiment: Plasma protein binding in human plasma; type: in vitro ADME; settings: range of 0.1 to 10 μM
# [9] = Plasma protein binding in human plasma; type: in vitro ADME; settings: human plasma
# [10] = Atogepant-esomeprazole drug interaction study: atogepant PK; type: in vivo, human; settings: for Tmax: human, plasma, oral
# Protocol: A phase 1, open-label, 2-intervention, single-sequence, nonrandomized, crossover, drug-drug interaction study was conducted to evaluate the effects of multiple-dose esomeprazole magnesium 40 mg on pharmacokinetics (PK) and safety of co-administered single-dose atogepant 60 mg in healthy adults.
# In this study, healthy adult participants received single-dose oral atogepant 60 mg on day 1, followed by once-daily esomeprazole 40 mg on days 7-13, co-administered with single-dose atogepant on day 12. Samples for atogepant PK analysis were collected on days 1 and 12. PK parameters calculated from atogepant plasma concentrations included peak plasma concentration (Cmax); time to Cmax (tmax); area under plasma concentration-time curve from time 0 to […] (AUC0-t) and from time 0 to infinity (AUC0-∞). PK parameters of atogepant alone vs. co-administered with esomeprazole were compared using a mixed-effects model. Statistical significance was achieved if 90% confidence intervals (CIs) for geometric least squares mean ratios (GMRs) of PK parameter values for atogepant co-administered with esomeprazole to atogepant administered alone were within 80%-125%.
# [11] = target: CYP3A4 (Homo sapiens, UniProt P08684); experiment: In vitro CYP inhibition; type: in vitro ADME; settings: clinically relevant concentrations
# Sequence of CYP3A4 (Homo sapiens, UniProt P08684) (P08684 whole entry): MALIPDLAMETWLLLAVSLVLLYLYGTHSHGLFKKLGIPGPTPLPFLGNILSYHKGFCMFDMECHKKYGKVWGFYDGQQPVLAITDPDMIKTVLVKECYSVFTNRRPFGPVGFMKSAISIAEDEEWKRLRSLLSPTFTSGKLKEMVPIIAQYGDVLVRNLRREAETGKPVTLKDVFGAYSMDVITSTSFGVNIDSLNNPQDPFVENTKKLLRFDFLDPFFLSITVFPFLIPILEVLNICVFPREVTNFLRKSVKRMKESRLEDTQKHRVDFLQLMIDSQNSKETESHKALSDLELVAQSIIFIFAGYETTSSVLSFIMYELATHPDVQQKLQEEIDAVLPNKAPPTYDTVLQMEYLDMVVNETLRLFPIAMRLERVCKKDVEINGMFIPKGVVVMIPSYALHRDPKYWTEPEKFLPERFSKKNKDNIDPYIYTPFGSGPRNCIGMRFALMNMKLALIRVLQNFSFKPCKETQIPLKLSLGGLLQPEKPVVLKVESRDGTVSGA
# [12] = system: CYP3A4; experiment: CYP induction; type: in vitro ADME; settings: clinically relevant concentrations
# [13] = Atogepant-topiramate interaction study, cohort 1: atogepant steady-state PK; type: in vivo, human; settings: for AUC / Cmax / Tmax: both sexes, human, plasma; for Tmax: read-out: Tmax,ss (median)
# Protocol: The duration of the study was 25 days (±2 days), which included day −1 through the follow-up visit and excluded the screening period. The screening period was up to 21 days before day 1 and the intervention period was a total of 19 days, at which point the end of dosing visit was conducted. […] Clinical laboratory tests were performed at the follow-up visit, which was conducted on day 24 (7 [±2] days after the last dose of study medication. […] The primary endpoints were area under the plasma concentration-time curve during dosing interval at steady state (AUC0-tau,ss) and maximum plasma drug concentration at steady state (Cmax,ss) of atogepant and topiramate when coadministered and when administered alone. Additional PK parameters included time of maximum plasma drug concentration at steady state (Tmax,ss), average plasma drug concentration at steady state (Cavg,ss), and minimum plasma drug concentration at steady state (Cmin,ss) of topiramate and atogepant when coadministered and when administered alone.
# [14] = target: MAO-A (Homo sapiens, UniProt P21397); experiment: Enzyme inhibition; type: in vitro ADME; settings: clinically relevant concentrations
# Sequence of MAO-A (P21397 whole entry): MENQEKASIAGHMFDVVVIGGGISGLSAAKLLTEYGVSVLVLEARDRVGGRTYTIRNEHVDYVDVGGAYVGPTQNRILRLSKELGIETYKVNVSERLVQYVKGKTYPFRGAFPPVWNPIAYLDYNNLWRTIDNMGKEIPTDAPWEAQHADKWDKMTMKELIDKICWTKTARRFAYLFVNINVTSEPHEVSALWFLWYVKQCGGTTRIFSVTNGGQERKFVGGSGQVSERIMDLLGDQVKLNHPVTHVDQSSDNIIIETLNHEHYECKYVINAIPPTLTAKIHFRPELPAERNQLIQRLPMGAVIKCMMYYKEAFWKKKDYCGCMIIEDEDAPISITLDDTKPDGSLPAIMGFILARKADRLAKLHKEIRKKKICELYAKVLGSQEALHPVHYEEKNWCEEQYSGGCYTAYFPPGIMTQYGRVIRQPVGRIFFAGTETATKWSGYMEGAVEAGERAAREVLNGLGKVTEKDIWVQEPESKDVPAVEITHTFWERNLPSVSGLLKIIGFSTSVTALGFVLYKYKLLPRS
# [15] = system: patients with episodic migraine; experiment: Study 2 (NCT02848326): preventive treatment of episodic migraine, efficacy; type: in vivo, human
# Protocol: The studies enrolled patients with at least a 1-year history of migraine with or without aura, according to the International Classification of Headache Disorders (ICHD-3) diagnostic criteria. In Study 1 (NCT03777059), 910 patients were randomized 1:1:1:1 to receive atogepant 10 mg (N=222), atogepant 30 mg (N=230), atogepant 60 mg (N=235), or placebo (N=223), once daily for 12 weeks. In Study 2 (NCT02848326), 652 patients were randomized 1:2:2:2 to receive atogepant 10 mg (N=94), atogepant 30 mg (N=185), atogepant 60 mg (N=187), or placebo (N=186), once daily for 12 weeks. In both studies, patients were allowed to use acute headache treatments (i.e., triptans, ergotamine derivatives, NSAIDs, acetaminophen, and opioids) as needed. The use of a concomitant medication that acts on the CGRP pathway was not permitted for either acute or preventive treatment of migraine. The studies excluded patients with myocardial infarction, stroke, or transient ischemic attacks within six months prior to screening. The primary efficacy endpoint was the change from baseline in mean monthly migraine days across the 12-week treatment period.
# [16] = atogepant 60 mg QD + topiramate 100 mg BID, day 17
# [17] = atogepant 60 mg QD alone, day 7
# [18] = Study 2, atogepant 10 mg once daily
# [19] = Study 2, atogepant 30 mg once daily
# [20] = Study 2, atogepant 60 mg once daily
structure (smiles),measurement,setting,value
"C[C@@H]1[C@H](c2c(F)ccc(F)c2F)C[C@H](NC(=O)c2cnc3c(c2)C[C@@]2(C3)C(=O)Nc3ncccc32)C(=O)N1CC(F)(F)F [atogepant, (3′S)-N-[(3S,5S,6R)-6-methyl-2-oxo-1-(2,2,2-trifluoroethyl)-5-(2,3,6-trifluorophenyl)piperidin-3-yl]-2′-oxo-1′,2′,5,7-tetrahydrospiro[cyclopenta[b]pyridine-6,3′-pyrrolo[2,3-b]pyridine]-3-carboxamide]",tolerability,[1],well tolerated
same,substrate of BCRP,[2],substrate
same,inhibition of CYP2C9,[3],not an inhibitor
same,inhibition of CYP2C19,[4],not an inhibitor
same,substrate of OAT1,[5],substrate
same,safety and tolerability,[6],safe and well tolerated
same,inhibition of OATP1B3,[7],weak inhibitor
same,concentration dependence of plasma protein binding,[8],not concentration-dependent
same,fraction unbound,[9],~0.047
same,reduced Cmax,[10]; coadministration with esomeprazole,23%
same,Tmax,"[10]; 60 mg, atogepant 60 mg alone, read-out: median plasma atogepant tmax",1.51 h
same,Tmax,"[10]; atogepant 60 mg coadministered with esomeprazole 40 mg, read-out: median plasma atogepant tmax",3 h
same,Tmax,"[10]; coadministration with esomeprazole vs alone, read-out: delay of median tmax",1.5 h
same,inhibition of CYP3A4,[11],not an inhibitor
same,induction of CYP3A4,[12],not an inducer
same,"Cavg,ss",[13]; [16],95.8 ng/mL
same,"Cmin,ss",[13]; [16],6.3 ng/mL
same,"Cavg,ss",[13]; [17],125.6 ng/mL
same,"Cmin,ss",[13]; [17],10.2 ng/mL
same,AUC,"[13]; 60 mg, Atogepant Alone, read-out: AUC0-tau,ss Geometric LSM",2720 ng·h/mL
same,Cmax,"[13]; 60 mg, Atogepant Alone, read-out: Cmax,ss Geometric LSM",535 ng/mL
same,AUC,"[13]; 60 mg, atogepant 60 mg QD alone, day 7, read-out: AUC0-tau,ss",3020 ng·h/mL
same,Cmax,"[13]; 60 mg, atogepant 60 mg QD alone, day 7, read-out: Cmax,ss",626 ng/mL
same,AUC,"[13]; Atogepant and Topiramate, read-out: AUC0-tau,ss Geometric LSM",2030 ng·h/mL
same,Cmax,"[13]; Atogepant and Topiramate, read-out: Cmax,ss Geometric LSM",406 ng/mL
same,AUC,"[13]; atogepant 60 mg QD + topiramate 100 mg BID, day 17, read-out: AUC0-tau,ss",2300 ng·h/mL
same,Cmax,"[13]; atogepant 60 mg QD + topiramate 100 mg BID, day 17, read-out: Cmax,ss",491 ng/mL
same,Tmax,[13]; [16],2 h
same,Tmax,[13]; [17],2 h
same,"reduction of atogepant AUC0-tau,ss",[13]; coadministered with topiramate,25%
same,"reduction of atogepant Cmax,ss",[13]; coadministered with topiramate,24%
same,inhibition of MAO-A,[14],does not inhibit
same,"Monthly Headache Days across 12 weeks, difference from placebo",[15]; [18],−1.4
same,"Monthly Headache Days across 12 weeks, mean change from baseline",[15]; [18],−4.3
same,"Monthly Migraine Days (MMD) across 12 weeks, difference from placebo",[15]; [18],−1.1
same,"Monthly Migraine Days (MMD) across 12 weeks, mean change from baseline",[15]; [18],−4.0
same,"Monthly Headache Days across 12 weeks, difference from placebo",[15]; [19],−1.2
same,"Monthly Headache Days across 12 weeks, mean change from baseline",[15]; [19],−4.2
same,"Monthly Migraine Days (MMD) across 12 weeks, difference from placebo",[15]; [19],−0.9
same,"Monthly Migraine Days (MMD) across 12 weeks, mean change from baseline",[15]; [19],−3.8
same,"Monthly Headache Days across 12 weeks, difference from placebo",[15]; [20],−0.9
same,"Monthly Headache Days across 12 weeks, mean change from baseline",[15]; [20],−3.9
same,"Monthly Migraine Days (MMD) across 12 weeks, difference from placebo",[15]; [20],−0.7
same,"Monthly Migraine Days (MMD) across 12 weeks, mean change from baseline",[15]; [20],−3.6
